# Details: buffer; pH 7.4; 200.0 µM
row,Compound,solubility kinetic
1,O=C(O)[C@H](Cc1ccccc1)Nc1ccc([N+](=O)[O-])cn1,> 43.1 µg/mL
2,Cc1ccccc1N1C(=O)c2cccc([N+](=O)[O-])c2C1=O,> 42.3 µg/mL
3,COc1cccc(CNc2ccc3c(c2)nc(C)n3C)c1OC,44.8 µg/mL
4,Cc1cc(C)cc(N2CC(C)Cn3c2nc2c3c(=O)[nH]c(=O)n2C)c1 (stereo unspecified),13 µg/mL
5,O=C(COc1ccc2c(c1)CCC2)Nc1ccccn1,14.2 µg/mL
6,O=C(NC(=S)Nc1cccc2ncccc12)c1cccs1,1.7 µg/mL
7,C[C@H](NC(=O)N1CCn2c1nc1ccccc12)C(=O)NC1CC1,> 47 µg/mL
8,CS(=O)(=O)N(CC(=O)N1CCN(Cc2ccccc2)CC1)c1cccc(F)c1,57.9 µg/mL
9,COc1cc(/C(C)=N/N2CCOCC2)cc(OC)c1OC,> 44.2 µg/mL
10,COc1cc(/C=C2\N=C(c3ccccc3)OC2=O)ccc1OC(C)=O,> 50.6 µg/mL
11,CN(CCC#N)S(=O)(=O)c1cc2c3c(c1)CCN3C(=O)CC2,> 47.9 µg/mL
12,S=C(NC1CCCCC1)NC1CC2C=CC1C2 (stereo unspecified),19.5 µg/mL
13,Cc1ccc(NC(=O)COC(=O)CCNS(=O)(=O)c2c(Cl)cccc2Cl)cc1,48.5 µg/mL
14,O=C(CSc1nncn1-c1ccccc1)N1CCCC1,> 43.3 µg/mL
15,CCCCNC(=O)CN1C(=O)NC2(CCOc3ccccc32)C1=O (stereo unspecified),> 49.7 µg/mL
16,CC(C)NC(=O)COc1ccccc1C#N,> 32.7 µg/mL
17,COCc1cc(=O)[nH]c(SCCS(=O)(=O)c2ccc(C)cc2)n1,> 53.2 µg/mL
18,COc1ccc(S(=O)(=O)NC2CCc3ccccc32)cc1OC (stereo unspecified),> 50 µg/mL
19,O=C(O)CCN1C(=O)C2C3c4ccccc4C(c4ccccc43)C2C1=O (stereo unspecified),> 52.1 µg/mL
20,CNC(=O)c1ccc(NC(=O)CC23CC4CC(CC(C4)C2)C3)cc1,13.8 µg/mL
21,NC(=O)c1cc([N+](=O)[O-])cc2c1C=Cc1ccccc1O2,4.6 µg/mL

row,Compound,solubility kinetic
1,N#Cc1c(Nc2ccccc2C(F)(F)F)s[nH]c1=O,> 42.8 µg/mL
2,O=C(O)c1ccc2c(c1)C(=O)N(c1cc([N+](=O)[O-])ccn1)C2=O,> 47 µg/mL
3,CN1CCN(c2ccccc2NC(=O)c2ccc(F)cc2)CC1,> 47 µg/mL
4,O=C(/C=C\c1ccco1)NC(=S)Nc1ccccc1O,42.6 µg/mL
5,C=CCOn1c(=O)c(-c2ccc(F)cc2)[n+]([O-])c2ccccc21,2 µg/mL
6,CCOc1ccccc1CNC(c1ccccc1)c1ccccc1.Cl,1.4 µg/mL
7,O=C(Nc1ccc2c(c1)CCC2)c1cccc(OC(F)F)c1,10.2 µg/mL
8,CC1N=C(c2ccccc2)c2cc(Br)ccc2NC1=O (stereo unspecified),> 49.4 µg/mL
9,CCN(CC)C(=O)CSc1nnc([C@@H](N)C(C)C)o1.Cl,> 48.4 µg/mL
10,Cc1ccccc1N=Cc1cccc(O)c1O,20.9 µg/mL
11,COc1ccc(N2CCN(CC(=O)NCc3ccc(Cl)cc3)CC2)cc1,2.2 µg/mL
12,COc1cc(Oc2nc(C(F)(F)F)nc3ccccc23)ccc1C=O,< 0.4 µg/mL
13,CSc1nc2c(cc1C#N)C(=O)CC(C)(C)C2,10.3 µg/mL
14,O=C(NC1CCOc2ccccc21)c1ccc(=O)[nH]c1 (stereo unspecified),> 40.5 µg/mL
15,Cc1ccc(CNC(=O)CCSCc2ccc(C)cc2)cc1,14.3 µg/mL
16,CN(Cc1ccccc1)C(=O)COC(=O)c1ccc[nH]c1=O,> 45 µg/mL
17,O=C(NCc1ccccc1Cl)c1cnccc1C(F)(F)F,> 47.2 µg/mL
18,CCc1ccccc1NC(=O)COC(=O)C1C2CC3OC(=O)C1C3C2 (stereo unspecified),46.2 µg/mL
19,CC1CCN(C(=O)c2ccc(S(=O)(=O)N3CCCCCC3)cc2)CC1,26 µg/mL
20,CCCC(=O)Nc1ccc(NC(=O)c2cccc(OC)c2)cn1,8.7 µg/mL
21,Cc1cc(C)n2nc(SCc3ccccc3C(=O)O)nc2n1,> 47.2 µg/mL

row,Compound,solubility kinetic
1,CSCCC(NC(=O)/C(=C/c1ccco1)NC(=O)c1ccco1)C(=O)O (stereo unspecified),> 56.8 µg/mL
2,Cc1ccc(OCC(=O)NC2CCS(=O)(=O)C2)c(C)c1 (stereo unspecified),> 44.6 µg/mL
3,CCCN1CNC(=S)N(c2ccccc2C)C1,> 37.4 µg/mL
4,CC(C)(C)C(=O)Nc1cc(NC(=O)C(C)(C)C)cc(C(=O)Nc2c[nH]c(=O)[nH]c2=O)c1,45.3 µg/mL
5,O=C(/C=C/c1ccco1)N1CCN(c2ccc(F)cc2)CC1,5.6 µg/mL
6,Cl.c1ccc(CNc2c3c(nc4ccccc24)CCC3)cc1,> 46.6 µg/mL
7,N#C/C(=C\c1cccc(Br)c1)C(=O)N1CCCCC1,> 47.9 µg/mL
8,CNC(=S)N1CCc2cc(OC)c(OC)cc2C1,> 40 µg/mL
9,COC(=O)c1sccc1NC(=O)Nc1cccc(C)c1C,8.1 µg/mL
10,COc1ccc(C(=O)/C=C2\Sc3ccccc3N2C)cc1,0.7 µg/mL
11,Cc1c(C(=O)Nc2cccc(S(=O)(=O)N3CCOCC3)c2)oc2ccccc12,2.3 µg/mL
12,COc1ccc(C(C)NC(=O)Cc2cccs2)cc1OC (stereo unspecified),> 45.8 µg/mL
13,COc1ccc(CCC(=O)OCC(=O)NCc2ccccc2)cc1,> 49.1 µg/mL
14,Cc1ccsc1/C=N/Nc1ncnc2nc[nH]c12,> 38.7 µg/mL
15,O=C(c1ccccc1)c1ncc[nH]1,> 25.8 µg/mL
16,N#C/C(=C\c1cccnc1)c1ccccn1,> 31.1 µg/mL
17,N#Cc1cc2ccccc2nc1N,> 25.4 µg/mL
18,COc1ccccc1Nc1ccc(C(=O)O)cc1[N+](=O)[O-],> 43.2 µg/mL
19,O=C(COC(=O)c1cc(-c2ccccc2)nc2ccccc12)NC1CC1,6.6 µg/mL
